According to US9982249B2, “Xylose isomerases and their uses” (BP Corporation North America Inc., priority 2012, dated 2018):

Tests used:
Assay in all cases: Km and Vmax determination at pH 6 (XI activity assay coupled to sorbitol dehydrogenase, Hanes plot)
Assay type in all cases: biochemical
Details in all cases: xylose about 40-600 mM, about 35° C., lysate of S. cerevisiae CEN.PK2-1Ca expressing XI from p426PGK1
[1] = test system: Firmicutes xylose isomerase, clone 1753MI4_001, SEQ ID NO: 38
Procedure: (§1) XI activity in cell lysates was determined using a method based on that of Kersters-Hilderson et al., 1986, Enzyme Microb. Technol. 9:145-148, in which enzymatic conversion of xylose to xylulose by the XI is coupled with the enzymatic conversion of the product (xylulose) to xylitol via the enzyme sorbitol dehydrogenase (SDH). SDH activity requires the oxidation of NADH to NAD^+. The rate of oxidation of NADH is directly proportional to the rate of SDH conversion of D-xylulose to D-xylitol and is measured by the decrease in absorbance at 340 nm One unit of enzyme activity as measured by this assay is a decrease of […] of NADH per minute under assay conditions. All reactions, solutions, plates, and spectrophotometer were equilibrated to about 35° C. prior to use. Assays were performed either on fresh lysates immediately after preparation or lysates that had been frozen at −20° C. immediately after preparation. Assays were performed using a BioTek Model: Synergy H1 Hybrid Reader spectrophotometer and 96-well plates (Corning, Model #Costar® #3598). All spectrophotometric readings were performed at 340 nm. […]
(§2) The reaction buffer used for experiments at pH 7.5 was about 100 mM Tris-HCl (pH 7.5). […] For experiments where activity was also measured at pH 6, the buffer was changed to about 100 mM sodium phosphate, pH 6. […]
(§3) Any sample dilutions were performed using the reaction buffer as diluent. […] Reactions were mixed and read immediately using kinetic assay mode for about 10 minutes. Volumetric activity (VA) units are in milli-absorbance (mA) units per minute per ml of lysate added to the reactions (mA/min/ml). […] If protein quantitation was performed, specific activities (SA) were calculated where the units for SA are (mole NADH^+/min/mg, or U/mg lysate protein). […]
(§4) The Km and Vmax at pH 6 were determined for a subset of the XI clones, expressed on p426PGK1 vector in Saccharomyces cerevisiae CEN.PK2-1Ca (ATCC: MYA1108), using the XI activity assay described in the Materials and Methods and varying the concentrations of xylose from about 40-600 mM. […]

[2] = test system: Prevotella xylose isomerase, clone 1754MI1_001, SEQ ID NO: 78
Procedure: as §1, §2, §3, §4

[3] = test system: Prevotella xylose isomerase, clone 5586MI108_002, SEQ ID NO: 96
Procedure: as §1, §2, §3, §4

OC1OC[C@@H](O)[C@H](O)[C@H]1O (stereo partly drawn) [xylose, D-xylose]
Km [1]: 28.8 mM | Km [2]: 35.2 mM | Km [3]: 33.7 mM
